Experimental data reported in the NIST ThermoML archive (doi:10.1016/j.jct.2010.04.006).
± gives the expanded uncertainty stated by the source.

Key:
[1] = Crystal; DTA
[2] = Molar enthalpy of transition or fusion; conditions: Crystal; DSC

## O=C1Cc2ccccc2N1 [indolin-2-one]
[1]
  Normal melting temperature: 125.71 ± 0.5 °C
[2]
  Molar enthalpy of transition or fusion: 4.48 ± 0.136 kcal/mol
